Assay results published in ChEMBL document CHEMBL4007392, “Modulating Mineralocorticoid Receptor with Non-steroidal Antagonists. New Opportunities for the Development of Potent and Selective Ligands without Off-Target Side Effects” (J Med Chem, 2017).

Tests used:
Progesterone receptor = molecular target: T1, Progesterone receptor (Homo sapiens, UniProt P06401); assay: Antagonist activity at GAL4-fused human PR LBD (680 to 933 residues) expressed in CHO-K1 cells assessed as inhibition of progesterone-induced transactivation activity after 5 to 6 hrs by luciferase reporter gene assay; format: cell-based
T1 sequence (P06401 whole entry): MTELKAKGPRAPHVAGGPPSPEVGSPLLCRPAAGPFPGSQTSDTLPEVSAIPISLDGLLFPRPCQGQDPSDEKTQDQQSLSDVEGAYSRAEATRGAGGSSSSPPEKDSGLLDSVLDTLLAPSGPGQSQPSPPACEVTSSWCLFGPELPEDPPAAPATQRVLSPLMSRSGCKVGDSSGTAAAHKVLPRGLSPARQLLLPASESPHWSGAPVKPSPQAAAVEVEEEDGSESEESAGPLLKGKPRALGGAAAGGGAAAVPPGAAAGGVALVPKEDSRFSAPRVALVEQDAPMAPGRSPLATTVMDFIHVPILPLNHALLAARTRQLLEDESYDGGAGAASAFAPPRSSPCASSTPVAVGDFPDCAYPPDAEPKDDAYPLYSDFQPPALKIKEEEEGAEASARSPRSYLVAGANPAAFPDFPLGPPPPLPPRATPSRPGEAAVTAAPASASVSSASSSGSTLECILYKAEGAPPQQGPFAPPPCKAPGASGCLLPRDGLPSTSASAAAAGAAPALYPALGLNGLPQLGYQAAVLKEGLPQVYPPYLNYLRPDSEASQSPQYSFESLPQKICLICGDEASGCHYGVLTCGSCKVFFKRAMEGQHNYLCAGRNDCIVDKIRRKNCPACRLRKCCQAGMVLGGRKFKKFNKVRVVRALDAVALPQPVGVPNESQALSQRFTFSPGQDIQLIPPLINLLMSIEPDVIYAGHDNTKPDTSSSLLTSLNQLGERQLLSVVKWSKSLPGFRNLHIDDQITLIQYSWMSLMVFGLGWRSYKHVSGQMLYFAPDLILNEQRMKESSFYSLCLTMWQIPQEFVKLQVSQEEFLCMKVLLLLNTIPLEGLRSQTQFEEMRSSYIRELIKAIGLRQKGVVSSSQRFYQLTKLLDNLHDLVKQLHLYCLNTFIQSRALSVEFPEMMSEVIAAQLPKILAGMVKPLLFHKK

Androgen receptor = molecular target: T2, Androgen receptor (Homo sapiens, UniProt P10275); assay: Antagonist activity at GAL4-fused human AR LBD (667 to 919 residues) expressed in CHO-K1 cells assessed as inhibition of dihydrotestosterone-induced transactivation activity after 5 to 6 hrs by luciferase reporter gene assay; format: cell-based
T2 sequence (P10275 whole entry): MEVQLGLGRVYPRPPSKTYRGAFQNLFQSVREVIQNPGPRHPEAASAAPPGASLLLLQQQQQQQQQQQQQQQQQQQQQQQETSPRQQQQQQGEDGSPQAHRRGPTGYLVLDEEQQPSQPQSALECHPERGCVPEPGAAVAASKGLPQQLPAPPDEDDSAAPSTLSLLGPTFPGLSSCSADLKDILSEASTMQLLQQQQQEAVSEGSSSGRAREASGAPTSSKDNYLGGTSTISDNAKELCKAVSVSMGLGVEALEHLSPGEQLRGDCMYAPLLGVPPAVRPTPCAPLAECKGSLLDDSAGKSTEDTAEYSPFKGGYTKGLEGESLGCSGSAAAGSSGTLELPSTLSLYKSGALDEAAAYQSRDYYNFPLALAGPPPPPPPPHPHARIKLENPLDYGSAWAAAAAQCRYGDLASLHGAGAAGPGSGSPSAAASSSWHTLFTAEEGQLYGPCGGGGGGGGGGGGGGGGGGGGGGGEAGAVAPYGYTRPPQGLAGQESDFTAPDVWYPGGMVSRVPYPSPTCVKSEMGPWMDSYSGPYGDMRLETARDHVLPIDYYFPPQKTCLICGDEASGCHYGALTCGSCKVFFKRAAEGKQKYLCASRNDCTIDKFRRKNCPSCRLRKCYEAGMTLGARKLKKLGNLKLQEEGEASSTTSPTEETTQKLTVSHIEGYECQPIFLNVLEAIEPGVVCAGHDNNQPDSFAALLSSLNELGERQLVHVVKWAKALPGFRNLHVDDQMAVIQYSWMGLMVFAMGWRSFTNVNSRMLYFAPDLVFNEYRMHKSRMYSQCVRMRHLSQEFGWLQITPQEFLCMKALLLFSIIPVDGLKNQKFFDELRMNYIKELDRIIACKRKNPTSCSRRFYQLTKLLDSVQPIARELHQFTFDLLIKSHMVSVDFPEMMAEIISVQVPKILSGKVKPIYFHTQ

Homo sapiens = organism: Homo sapiens; assay: Induction of improvement in urinary albumin-creatinine ratio in patient with diabetic nephropathy receiving ACE inhibitor or angiotensin receptor blocker at 7.5 to 20 mg/day during latter phase II trial; format: functional; design: scale not given: the % may be the effect or the level left
Glucocorticoid receptor = molecular target: T3, Glucocorticoid receptor (Homo sapiens, UniProt P04150); assay: Antagonist activity at GAL4-fused human GR LBD (443 to 777 residues) expressed in CHO-K1 cells assessed as inhibition of dexamethasone-induced transactivation activity after 5 to 6 hrs by luciferase reporter gene assay; format: cell-based
T3 sequence (P04150 whole entry): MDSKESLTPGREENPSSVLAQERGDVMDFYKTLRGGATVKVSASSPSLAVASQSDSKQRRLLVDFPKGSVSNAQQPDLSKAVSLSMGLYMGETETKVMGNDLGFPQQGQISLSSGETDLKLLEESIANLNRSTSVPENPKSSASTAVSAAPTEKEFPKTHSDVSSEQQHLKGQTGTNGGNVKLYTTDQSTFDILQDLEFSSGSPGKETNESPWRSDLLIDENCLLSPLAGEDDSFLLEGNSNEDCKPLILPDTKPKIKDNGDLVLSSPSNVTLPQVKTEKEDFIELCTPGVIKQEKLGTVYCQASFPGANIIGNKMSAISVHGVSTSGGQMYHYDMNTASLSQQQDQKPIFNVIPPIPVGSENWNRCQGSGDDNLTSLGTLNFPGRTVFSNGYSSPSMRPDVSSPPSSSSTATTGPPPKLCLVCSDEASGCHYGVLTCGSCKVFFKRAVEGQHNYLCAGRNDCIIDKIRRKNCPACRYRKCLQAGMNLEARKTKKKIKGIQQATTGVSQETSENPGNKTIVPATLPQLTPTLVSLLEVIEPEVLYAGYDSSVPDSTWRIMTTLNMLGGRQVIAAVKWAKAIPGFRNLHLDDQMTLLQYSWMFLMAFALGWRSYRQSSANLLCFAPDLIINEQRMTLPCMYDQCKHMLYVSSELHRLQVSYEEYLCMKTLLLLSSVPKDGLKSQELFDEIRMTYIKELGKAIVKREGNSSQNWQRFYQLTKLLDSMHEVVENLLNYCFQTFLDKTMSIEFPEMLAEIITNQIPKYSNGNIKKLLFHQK

In the case of `CCOc1ncc(C)c2c1[C@H](c1ccc(C#N)cc1OC)C(C(N)=O)=C(C)N2` [FINERENONE], the IC50 (Progesterone receptor) is reported as ≥ 10 µM, the IC50 (Androgen receptor) is reported as ≥ 10 µM and the Activity (Homo sapiens) is reported as 21 - 38%. For the same compound, the IC50 (Glucocorticoid receptor) was ≥ 10 µM.
